Active and inactive are the calls of the source. The rule behind the calls is not given here.
test system: Leishmania donovani; assay: Antileishmanial activity against Leishmania donovani MHOM/IN/80/Dd8 amastigotes infected in golden hamster assessed as inhibition of parasite growth at 50 mg/kg, ip for 5 days post infection measured on day 7 by Giemsa staining; format: functional; conditions: not given

Q: For `CCOC(=O)C(=O)CC(=O)/C=C/C1C(C)=CCCC1(C)C` (stereo not given), which “growth inhibition (GI)” value is on record?
A: inactive

Q: Which “growth inhibition (GI)” value does the source give for `CC1=CCCC(C)(C)C1/C=C/c1cc(C(=O)N2CCN(c3ccccc3)CC2)no1` (stereo not given) here?
A: inactive

Q: How did the growth inhibition (GI) turn out when Sodium stibogluconate was run?
A: 89%

Q: How did the “growth inhibition (GI)” value turn out when `CC1=CCCC(C)(C)C1/C=C/c1cc(C(=O)N2CCOCC2)no1` (stereo not given) was run?
A: inactive

same assay, conditions: Leishmania donovani, MHOM/IN/80/Dd8, ip, route intraperitoneal, read-out: GI

Q: How did the inhibition in vivo at 50 mg/kg turn out when `CCOC(=O)c1cc(/C=C/C2C(C)=CCCC2(C)C)on1` (stereo not given) was run?
A: 76%

Q: How did the inhibition in vivo at 50 mg/kg turn out when `CC1=CCCC(C)(C)C1/C=C/c1cc(C(=O)Nc2ccccc2)no1` (stereo not given) was run?
A: 74%

Q: With `CC1=CCCC(C)(C)C1/C=C/c1cc(C(=O)NO)no1` (stereo not given) as the compound, how does the inhibition in vivo at 50 mg/kg read?
A: 65%

Q: With `CC1=CCCC(C)(C)C1/C=C/c1cc(C(=O)O)no1` (stereo not given) as the compound, how does the inhibition in vivo at 50 mg/kg read?
A: 45%

Q: Which inhibition in vivo at 50 mg/kg does the source give for `COc1ccc(NC(=O)c2cc(/C=C/C3C(C)=CCCC3(C)C)on2)cc1` (stereo not given) here?
A: 58%

Q: For `NC[C@@H]1O[C@H](O[C@H]2[C@@H](O)[C@H](O[C@@H]3[C@@H](O)[C@H](N)C[C@H](N)[C@H]3O[C@H]3O[C@H](CO)[C@@H](O)[C@H](O)[C@H]3N)O[C@@H]2CO)[C@H](N)[C@@H](O)[C@@H]1O` [PAROMOMYCIN], which inhibition in vivo at 50 mg/kg is on record?
A: 46.7%

Q: With `CC1=CCCC(C)(C)C1/C=C/c1cc(C(=O)NN)no1` (stereo not given) as the compound, how does the inhibition in vivo at 50 mg/kg read?
A: 50%

Q: `CC1=CCCC(C)(C)C1/C=C/c1cc(C(=O)Nc2ccc(Cl)cc2)no1` (stereo not given) was tested. Which inhibition in vivo at 50 mg/kg did it give?
A: 63%

Q: Which inhibition in vivo at 50 mg/kg does the source give for `CC1=CCCC(C)(C)C1/C=C/c1cc(C(=O)NC2CCCCC2)no1` (stereo not given) here?
A: 70%

same assay, conditions: route intraperitoneal

Q: For `CC1=CCCC(C)(C)C1/C=C/c1cc(C(=O)[N-]N)no1.[Na+]` (stereo not given), which “growth inhibition (GI)” value is on record?
A: 70%

Q: Which “growth inhibition (GI)” value does the source give for `CC1=CCCC(C)(C)C1/C=C/c1cc(C(=O)N[O-])no1.[Na+]` (stereo not given) here?
A: 71%

From ChEMBL document CHEMBL2157967, “Chemotherapy of leishmaniasis. Part XI: synthesis and bioevaluation of novel isoxazole containing heteroretinoid and its amide derivatives” (2012)
